Measured values published in patent US10987669B2, “Apparatus and method for detection of tumour cells and circulating tumour cells” (MEDCOM ADVANCE, S.A., priority 2016, dated 2021).

Tests used:
Type in all cases: cell-based
[1] = test system: MCF7 breast cancer cell line (compared with MCF12A healthy breast cells); test: 2-NBD glucose uptake measurements on fixed cells; details: for Fluorescence intensity of 2-NBDG, cancer versus healthy cells: 300 μM 2-NBDG
Procedure: MCF12A, a breast mammary epithelia-derived cell line, and MCF7 breast cancer cell line (American Type Culture Collection, ATCC, Manassas, Va., USA), were routinely cultured in DMEM/F-12 supplemented with 20 ng/mL of human epidermal growth factor, 100 ng/mL of cholera toxin, 0.01 mg/mL of bovine insulin, 500 ng/mL of hydrocortisone 95% and 5% donor horse serum; and in EMEM (Eagle's Minimum Essential Medium) supplemented with 10% fetal bovine serum, 0.01 mg/mL human recombinant insulin, 2 mM of L-glutamine and 1% Penicillin-Streptomycin, respectively. Each cell line was cultured in a humidified atmosphere with 5% CO2 at 37° C.
To study the general uptake and retention of glucose, cells were exposed to 300 μM of 2-(N-(7-Nitrobenz-2-oxa-1,3-diazol-4-yl)Amino)-2-Deoxyglucose (2-NBDG) for different incubation times: 1, 5, 10, 20, 30, and 60 min. To achieve higher 2-NBDG accumulation inside MCF7 cells, cells were exposed to different conditions based on the concentrations of dissolved oxygen. The effects on oxygen availability were evaluated by exposing cells to the hyperoxic or hypoxic environment, created by bubbling 2-NBDG incubation media for 20 min with oxygen or nitrogen, respectively. Afterwards, cells were fixed with 4% paraformaldehyde solution in 1×PBS, for 20 min, and then washed 6 times with 1×PBS and mounted onto glass slides with Fluoromount G (Southern Biotech), for the fluorescence measurements.
(§1) Fixed cells were imaged with fluorescence microscopy and then analysed using Image J. Epi-fluorescence microscope NIKON TE2000E equipped with the 465/495 excitation and 515/555 emission filters was used to collect the fluorescence of 2-NBDG. […]
2-(N-(7-Nitrobenz-2-oxa-1,3-diazol-4-yl)Amino)-2-Deoxyglucose (2-NBDG) is chosen as the model metabolism indicator. […] The concentration of 2-NBDG was determined based on the gain of clear visibility on the fluorescence images. The fluorescence intensity was quantified using Image J. The same thresholds were set for fluorescence images of both healthy and cancer cells to remove the background noises. […]

[2] = test system: co-cultured MCF7 (Qdot685 labelled) cells with MCF12A (Qdot625 labelled) cells; test: 2-NBD glucose uptake measurements in co-cultured cells; details: 300 μM 2-NBDG, 5 min, hyperoxic environment, co-culture
Procedure: To successfully identify different cell types in a cell mixture, previously functionalized Qdot 625 and 685 were used as the intracellular trackers for MCF12A and MCF7 cells, respectively. 50,000 cells/wells of each type were cultured separately onto glass cover slips inside 12-well plates and left growing for 48 h, at 5% CO2 and 37° C. Then, cells were washed with pre-warmed 1×PBS for 1 minute and 100 nM of each Qdot@amino-PEG was added in the cell growth media, and waited for 1 hour. After the incubation, cells were washed 3 times with 1×PBS. MCF7 (Qdot685 labelled) cells were detached from the surface using Trypsin-EDTA solution 0.25% and re-cultured onto MCF12A (Qdot625 labelled) cells. […]
Co-cultured MCF7 (Qdot685 labelled) cells with MCF12A (Qdot625 labelled) cells were exposed to 300 μM of 2-NBDG for 5 min, under the hyperoxic environment, determined by the previous optimizations. Afterwards, cells were fixed with 4% paraformaldehyde solution in 1×PBS for 20 min, and then washed 6 times with 1×PBS and mounted onto glass slides with Fluoromount G (Southern Biotech), for the fluorescence measurements.
as §1

MCF7 and MCF12A cells = test: On-line detection of cancer and healthy cells in the detection microfluidic chip; details: 150 μM 2-NBDG, 5 min, hyperoxic 1×PBS, cells in flow at 0.025 mL/h
Excerpt: A detection chip based on the hydrodynamic focusing technique was constructed to continuously detect hypermetabolic cancer cells by measuring single cell fluorescence. It consisted of three inlets, a main single channel and an outlet (FIG. 8a). All inlet channels converged in a single one of 75 μm-width, which was widen to 600 μm (detection region). The conformation of the inlet channels ensures the focus of cells into a line, which can be further detected one by one. Depth of the whole microfluidic chip was 75 μm.
For the on-line detection of cancer and healthy cells, MCF12A and MCF7 cells were separately detached from culture flasks, centrifuged at 1,300 rpm for 5 min and resuspended in 1 mL of 1×PBS under hyperoxic conditions. As mentioned above, hyperoxia was achieved by bubbling oxygen into the PBS solution for 20 min. 2-NBDG was then added to achieve 150 μM as the final concentration and incubated with suspended cells for 5 min, as the optimal condition. Afterwards, incubation was stopped by adding 2-fold volume of pre-cooled 1×PBS and non-uptaken 2-NBDG was removed by centrifuging cells at 1,300 rpm for 5 min and suspending in 1×PBS. […] An epi-fluorescence microscope was used to collect the fluorescence of the 2-NBDG uptaken by single cells (both, MCF12A and MCF7). Data was analyzed with Image J software.

For `O=[N+]([O-])c1ccc(N[C@H]2C(O)O[C@H](CO)[C@@H](O)[C@@H]2O)c2nonc12` (some centres unmarked) [2-NBDG, 2-(N-(7-Nitrobenz-2-oxa-1,3-diazol-4-yl)Amino)-2-Deoxyglucose], the “Fluorescence intensity of 2-NBDG, cancer versus healthy cells” value ([1]; 5 min incubation, MCF7 vs MCF12A cultured separately) was “higher fluorescence compared to healthy cells”, the “Fluorescence intensity of 2-NBDG, cancer versus healthy cells” value ([1]; incubation longer than 5 min (up to 60 min), MCF7 vs MCF12A) was “fluorescence from healthy cells overtakes the cancer cells” and the “Fluorescence intensity gap between cancer and healthy cells” value ([1]; 5 min incubation, hyperoxia compared to control and hypoxia environments) was “further enlarged”. For the same molecule, the “Fluorescence intensity of 2-NBDG, cancer cell versus surrounded healthy cells” value [2] was “greater fluorescence intensity” and the “Single cell fluorescence intensity of 2-NBDG, cancer versus healthy cells” value (MCF7 and MCF12A cells) was “higher fluorescence intensity compared to the healthy ones”.
